The record followed here is patent publication US20100210539A1, “USE OF PEPTIDE LL-37 AS A THERAPEUTIC AGENT” (priority 2007, published 2010).

In the experiment the test system is drug-resistant Mycobacterium tuberculosis. The settings on record: peptide 10 micrograms per ml, seven days.

In general, % inhibition refers to how much of the control response was suppressed. Low readings indicate little suppression, high ones strong suppression.

Each structure is given as a SMILES string.

As to `CC[C@H](C)[C@H](NC(=O)[C@H](CCCCN)NC(=O)[C@H](CCC(=O)O)NC(=O)[C@H](CCCCN)NC(=O)[C@H](CO)NC(=O)[C@H](CCCCN)NC(=O)[C@H](CCCNC(=N)N)NC(=O)[C@H](Cc1ccccc1)NC(=O)[C@H](Cc1ccccc1)NC(=O)[C@H](CC(=O)O)NC(=O)CNC(=O)[C@H](CC(C)C)NC(=O)[C@@H](N)CC(C)C)C(=O)NCC(=O)N[C@@H](CCCCN)C(=O)N[C@@H](CCC(=O)O)C(=O)N[C@@H](Cc1ccccc1)C(=O)N[C@@H](CCCCN)C(=O)N[C@@H](CCCNC(=N)N)C(=O)N[C@H](C(=O)N[C@H](C(=O)N[C@@H](CCC(N)=O)C(=O)N[C@@H](CCCNC(=N)N)C(=O)N[C@H](C(=O)N[C@@H](CCCCN)C(=O)N[C@@H](CC(=O)O)C(=O)N[C@@H](Cc1ccccc1)C(=O)N[C@@H](CC(C)C)C(=O)N[C@@H](CCCNC(=N)N)C(=O)N[C@@H](CC(N)=O)C(=O)N[C@@H](CC(C)C)C(=O)N[C@H](C(=O)N1CCC[C@H]1C(=O)N[C@@H](CCCNC(=N)N)C(=O)N[C@H](C(=O)N[C@@H](CCC(=O)O)C(=O)N[C@@H](CO)C(N)=O)[C@@H](C)O)C(C)C)[C@@H](C)CC)C(C)C)[C@@H](C)CC` [LL-37], the “% inhibition” value is 0.0%.
